# Literature values as cited in US7189730B2, “A2A adenosine receptor antagonists” (CV Therapeutics, Inc., priority 2001, dated 2007).
# Tests used:
# [1] = tested on: experimentally induced cataleptic responses; details: in vivo
# [2] = tested on: haloperidol-induced catalepsy; details: rat; Mandhane et al. 1997
compound,measurement,setting,value
CCCn1c(=O)c2c(nc(/C=C/c3ccc(OC)c(OC)c3)n2C)n(CCC)c1=O [KF 17837],effect on experimentally induced cataleptic responses,[1],ameliorates
N[C@@H](Cc1ccc(O)c(O)c1)C(=O)O [L-DOPA],effect on haloperidol-induced catalepsy,[2],block
Cn1c(=O)c2[nH]cnc2n(C)c1=O [theophylline],improvement of symptoms in Parkinson's patients,Parkinson's patients,significant improvement of symptoms
